In the assay the test system is P388 leukemia ip, CD2F1 mice, survival T/C. Description: NCI In Vivo Anticancer Drug Screen. Data for tumor model P388 Leukemia (intraperitoneal) in CD2F1 (CDF1) mice. The conditions noted are these: endpoint: median survival time, higher = longer survival. The gist of the method: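 Mice carrying the transplanted tumor received test compound or vehicle. Survival was recorded in each group, and the value is the treated-group measurement divided by that of the vehicle-treated control group.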

[1] abbreviates: dose: 50.0 mg/kg/injection, schedule: Q01DX005 (ip), vehicle: saline with Tween-80.
[2] abbreviates: dose: 100.0 mg/kg/injection, schedule: Q01DX005 (ip), vehicle: saline with Tween-80.
Setting [3] is: dose: 50.0 mg/kg/injection, schedule: Q01DX009 (ip), vehicle: saline with Tween-80.
The mark [4] stands for this setting: dose: 100.0 mg/kg/injection, schedule: Q01DX009 (ip), vehicle: saline with Tween-80.
[5] abbreviates: dose: 100.0 mg/kg/injection, schedule: Q01DX001 (ip), vehicle: Klucel (hydroxypropylcellulose) (HPC).
[6] abbreviates: dose: 200.0 mg/kg/injection, schedule: Q01DX001 (ip), vehicle: Klucel (hydroxypropylcellulose) (HPC).
Where [7] appears, read: dose: 200.0 mg/kg/injection, schedule: Q01DX009 (ip), vehicle: saline with Tween-80.

Data on 21 compounds can be found in PubChem BioAssay AID330 (DTP/NCI, 2004).

Several values for one entry are separate records, joined by “and”; a condition that tells them apart may be missing. Equal values may be shown once. Toxic doses and inconclusive results are not listed.

Take `CC(=O)Nc1nc(N(C)C)nc(N(C)C)n1`: the T/C is, setting by setting: (dose: 50.0 mg/kg/injection, schedule: Q04DX002 (ip), vehicle: saline) 109 % of control; (dose: 100.0 mg/kg/injection, schedule: Q04DX002 (ip), vehicle: saline) 107 % of control; (dose: 200.0 mg/kg/injection, schedule: Q04DX002 (ip), vehicle: saline) 114 % of control.

As for `Cc1ccc2c(c1)C1(SC(C)C(=O)N1c1ccc(I)cc1)C(=O)N2` (stereo not drawn), the T/C runs as follows: (dose: 60.0 mg/kg/injection, schedule: Q01DX005 (ip), vehicle: saline with Tween-80) 103 % of control; (dose: 120.0 mg/kg/injection, schedule: Q01DX005 (ip), vehicle: saline with Tween-80) 94 % of control; (dose: 240.0 mg/kg/injection, schedule: Q01DX005 (ip), vehicle: saline with Tween-80) 91 % of control.

Consider `NC(=S)Nc1ccc(C(=O)O)cc1`, for which the T/C is 100 % of control (dose: 100.0 mg/kg/injection, schedule: Q04DX003 (ip), vehicle: saline with Tween-80); 95 % of control (dose: 200.0 mg/kg/injection, schedule: Q04DX003 (ip), vehicle: saline with Tween-80); 109 % of control (dose: 400.0 mg/kg/injection, schedule: Q04DX003 (ip), vehicle: saline with Tween-80).

As for `CC(=O)c1c(O)c2ccc(Cl)cc2[nH]c1=O`, the T/C reads like this: under setting [1], 99 % of control; under setting [2], 96 % of control; (dose: 200.0 mg/kg/injection, schedule: Q01DX005 (ip), vehicle: saline with Tween-80) 99 % of control.

As for `CCCCCCCCC(=O)CCCC`, the T/C is 109 % of control under setting [3]; 122 % of control under setting [4]; 100 % of control (dose: 100.0 mg/kg/injection, schedule: Q04DX003 (ip), vehicle: saline); 113 % of control (dose: 200.0 mg/kg/injection, schedule: Q04DX003 (ip), vehicle: saline).

With `O=NNc1ncc([N+](=O)[O-])s1`, the T/C is, setting by setting: (dose: 3.12 mg/kg/injection, schedule: Q01DX009 (ip), vehicle: water) 103 % of control; (dose: 6.25 mg/kg/injection, schedule: Q01DX009 (ip), vehicle: water) 97 % of control; (dose: 12.5 mg/kg/injection, schedule: Q01DX009 (ip), vehicle: water) 94 % of control; (dose: 25.0 mg/kg/injection, schedule: Q01DX009 (ip), vehicle: water) 100 % of control and 96 % of control; (dose: 50.0 mg/kg/injection, schedule: Q01DX009 (ip), vehicle: water) 100 % of control and 97 % of control; (dose: 100.0 mg/kg/injection, schedule: Q01DX009 (ip), vehicle: water) 101 % of control. Also, the T/C (dose: 200.0 mg/kg/injection, schedule: Q01DX009 (ip), vehicle: water) is 105 % of control.

`C=CCN(CC=C)C(N)=Nc1ccc(Cl)cc1`: the T/C is 100 % of control (dose: 6.25 mg/kg/injection, schedule: Q01DX009 (ip), vehicle: saline); 94 % of control (dose: 12.5 mg/kg/injection, schedule: Q01DX009 (ip), vehicle: saline); 97 % of control (dose: 25.0 mg/kg/injection, schedule: Q01DX009 (ip), vehicle: saline).

With `CCOC(=O)C(N=Nc1nn[nH]n1)c1ncn[nH]1` (stereo not drawn), the T/C was 98 % of control (dose: 50.0 mg/kg/injection, schedule: Q01DX001 (ip), vehicle: Klucel (hydroxypropylcellulose) (HPC)); 98 % of control under setting [5]; 91 % of control under setting [6].

Regarding `Oc1ccc(C2N=CNc3nc[nH]c32)c(O)c1` (stereo not drawn), the T/C (dose: 50.0 mg/kg/injection, schedule: Q01DX009 (ip), vehicle: saline) is 105 % of control; the T/C (dose: 100.0 mg/kg/injection, schedule: Q01DX009 (ip), vehicle: saline) is 102 % of control; the T/C (dose: 200.0 mg/kg/injection, schedule: Q01DX009 (ip), vehicle: saline) is 100 % of control.

For `CCCCCCCCCCCCCCCc1ccc(C(=O)C[n+]2ccccc2)cc1`, the T/C reads like this: (dose: 6.25 mg/kg/injection, schedule: Q04DX003 (ip), vehicle: saline with Tween-80) 109 % of control; (dose: 12.5 mg/kg/injection, schedule: Q04DX003 (ip), vehicle: saline with Tween-80) 118 % of control; (dose: 16.5 mg/kg/injection, schedule: Q04DX003 (ip), vehicle: saline with Tween-80) 95 % of control; (dose: 25.0 mg/kg/injection, schedule: Q04DX003 (ip), vehicle: saline with Tween-80) 100 % of control.

For the compound `CCSC(=S)Nc1nc2ccc(C)cc2s1`, the T/C is 107 % of control (dose: 6.25 mg/kg/injection, schedule: Q01DX009 (ip), vehicle: Klucel (hydroxypropylcellulose) (HPC)); 89 % of control (dose: 12.5 mg/kg/injection, schedule: Q01DX009 (ip), vehicle: Klucel (hydroxypropylcellulose) (HPC)); 103 % of control (dose: 25.0 mg/kg/injection, schedule: Q01DX009 (ip), vehicle: Klucel (hydroxypropylcellulose) (HPC)).

In the case of `CCN(CC)CCNc1ccc(C)c2oc3ccc(O)cc3c(=O)c12`, the T/C runs as follows: (dose: 12.5 mg/kg/injection, schedule: Q01DX005 (ip), vehicle: distilled water + Tween-80) 106 % of control; (dose: 25.0 mg/kg/injection, schedule: Q01DX005 (ip), vehicle: distilled water + Tween-80) 106 % of control; (dose: 50.0 mg/kg/injection, schedule: Q01DX005 (ip), vehicle: distilled water + Tween-80) 117 % of control.

For the compound `Cc1cc(C)c2cc(=O)oc-2c(C)c1`, the T/C under setting [5] is 100 % of control; the T/C under setting [6] was 103 % of control; the T/C (dose: 400.0 mg/kg/injection, schedule: Q01DX001 (ip), vehicle: Klucel (hydroxypropylcellulose) (HPC)) is 100 % of control.

Consider `CCCCCc1cc(O)c2c3c(c(=O)oc2c1)CP(=O)(c1ccccc1)CC3` (stereo not drawn), for which the T/C is 102 % of control (dose: 100.0 mg/kg/injection, schedule: Q01DX001 (ip), vehicle: saline with Tween-80); 98 % of control (dose: 200.0 mg/kg/injection, schedule: Q01DX001 (ip), vehicle: saline with Tween-80); 90 % of control (dose: 400.0 mg/kg/injection, schedule: Q01DX001 (ip), vehicle: saline with Tween-80).

As to `CN(C)c1ccc(Cc2ccc(N(C)C)nc2)cn1`, the T/C by setting is: under setting [1], 109 % of control; under setting [2], 110 % of control.

Regarding `O=[N+]([O-])c1ccc(O)c(/C=N\NS(=O)(=O)c2ccc(Cl)cc2)c1`, the T/C under setting [1] was 108 % of control and the T/C under setting [2] is 100 % of control.

For `CCOC(=O)c1ccc(NC(=O)Nc2nccs2)cc1`, the T/C runs as follows: under setting [7], 162 % of control; (dose: 400.0 mg/kg/injection, schedule: Q01DX009 (ip), vehicle: saline with Tween-80) 92 % of control.

In the case of `CCOC(=O)c1cc([N+](=O)[O-])c(C)n1C`, the T/C was 98 % of control under setting [3], 102 % of control under setting [4] and 96 % of control under setting [7].

`O=C(c1ncccc1O)N1CCCCC1`: the T/C is 88 % of control (dose: 12.5 mg/kg/injection, schedule: Q01DX009 (ip), vehicle: distilled water + Tween-80); 92 % of control (dose: 50.0 mg/kg/injection, schedule: Q01DX009 (ip), vehicle: distilled water + Tween-80); 99 % of control (dose: 100.0 mg/kg/injection, schedule: Q01DX009 (ip), vehicle: distilled water + Tween-80); 100 % of control (dose: 200.0 mg/kg/injection, schedule: Q01DX009 (ip), vehicle: distilled water + Tween-80).

Regarding `COC(=O)CC(O)CCCCCCCCCCCCC(C)C` (stereo not drawn), the T/C runs as follows: (dose: 8.75 mg/kg/injection, schedule: Q01DX005 (ip), vehicle: Klucel + Tween-80) 92 % of control; (dose: 17.5 mg/kg/injection, schedule: Q01DX005 (ip), vehicle: Klucel + Tween-80) 100 % of control; (dose: 35.0 mg/kg/injection, schedule: Q01DX005 (ip), vehicle: Klucel + Tween-80) 97 % of control.

Turning to `CC(C)(C)c1cc(C(O)(C(F)(F)F)C(F)(F)F)c(S)c(C(O)(C(F)(F)F)C(F)(F)F)c1`, the T/C is, setting by setting: (dose: 3.12 mg/kg/injection, schedule: Q01DX005 (ip), vehicle: suspension in saline) 103 % of control; (dose: 6.25 mg/kg/injection, schedule: Q01DX005 (ip), vehicle: suspension in saline) 103 % of control; (dose: 12.5 mg/kg/injection, schedule: Q01DX005 (ip), vehicle: suspension in saline) 103 % of control; (dose: 25.0 mg/kg/injection, schedule: Q01DX005 (ip), vehicle: suspension in saline) 110 % of control and 112 % of control.
